Reference: patent publication US7893048B2, “2-azetidinone derivatives as cholesterol absorption inhibitors for the treatment of hyperlipidaemic conditions” (AstraZeneca AB, priority 2005, dated 2011)

What was measured:
[1] = test system: 14C-cholesterol absorption; assay: In vivo testing of cholesterol absorption inhibitors (A); details: Mus musculus, po; 0.2 μmol/kg by gavage, procedure A, C57BL/6 female mice
Description: In Vivo Testing of Cholesterol Absorption Inhibitors (A)
C57BL/6 female mice were maintained on regular chow diet and housed in individual cages to collect faeces. Mice were fasted for 3 hours and then gavaged with vehicle or compound. Half an hour later the mice were gavaged with radiolabelled cholesterol. Six hours after the ^14C-cholesterol gavage blood samples were taken via the tail and plasma prepared to determine how much cholesterol were absorbed. 24 hours after the gavage of ^14C-cholesterol the mice were bled and plasma were prepared for analysis. Faeces were collected for 24 hours to assess absorption efficiency.

[2] = Absorption in a Caco-2 cells model; format: in vitro ADME; details: human
Description: Absorption of the compounds of formula (I) was tested in a Caco-2 cells model (Gastroenterology 1989, 96, 736): […]

**Q.** Which inhibition at 0.2 µmol/kg [1] does the source give for `CC(C)(C)[C@@H](NC(=O)CNC(=O)COc1ccc([C@@H]2[C@@H](SCC(O)c3ccc4c(c3)CCO4)C(=O)N2c2ccc(F)cc2)cc1)C(=O)O` (stereo partly drawn) [Example 4, N-({4-[(2R,3R)-3-{[2-(2,3-dihydro-1-benzofuran-5-yl)-2-hydroxyethyl]thio}-1-(4-fluorophenyl)-4-oxoazetidin-2-yl]phenoxy}acetyl)glycyl-3-methyl-D-valine] here?
**A.** Its inhibition at 0.2 µmol/kg is 53%.

**Q.** Which Papp [2] does the source give for `O=C(COc1ccc([C@@H]2[C@@H](SCC(O)c3ccc4c(c3)CCO4)C(=O)N2c2ccc(F)cc2)cc1)NCC(=O)N[C@H](CC1CCCCC1)C(=O)O` (stereo partly drawn) [Example 1, N-({4-[(2R,3R)-3-{[2-(2,3-dihydro-1-benzofuran-5-yl)-2-hydroxyethyl]thio}-1-(4-fluorophenyl)-4-oxoazetidin-2-yl]phenoxy}acetyl)glycyl-3-cyclohexyl-D-alanine] here?
**A.** The Papp was 0.05 ×10⁻⁶ cm/s.

**Q.** With `NCCCC[C@@H](NC(=O)CNC(=O)COc1ccc([C@@H]2[C@@H](SCC(O)c3ccc4c(c3)CCO4)C(=O)N2c2ccc(F)cc2)cc1)C(=O)O` (stereo partly drawn) [Example 3, N-({4-[(2R,3R)-3-{[2-(2,3-dihydro-1-benzofuran-5-yl)-2-hydroxyethyl]thio}-1-(4-fluorophenyl)-4-oxoazetidin-2-yl]phenoxy}acetyl)glycyl-D-lysine] as the compound, how does the inhibition at 0.2 µmol/kg [1] read?
**A.** The inhibition at 0.2 µmol/kg was 59%.
